Assay results from US20230102483A1, “[6R]-MTHF IN 5-FU BASED CHEMOTHERAPY OF LEFT-SIDED COLORECTAL CANCER” (Isofol Medical AB, priority 2021, published 2023).

Legend:
[1] = leucovorin vs levoleucovorin; cited from earlier work
[2] = cited from earlier work
[3] = system: metastatic colorectal cancer tumors (Stadium IV CRC patients); assay: Clinical Study ISO-CC-005 (Phase I/IIa) safety extension cohorts and Follow-up study: tumour response by CT/MRI per RECIST 1.1; assay type: in vivo, human
Excerpt: As used herein, the term ORR shall refer to the Objective Response Rate, ie. the proportion of patients with reduction in tumor burden of a predefined amount. […] (Note: the appearance of one or more new lesions is also considered progression). […] Shortly after, applicant started two additional treatment groups in 2018 to generate more safety and efficacy data, i.e. the safety extension Cohort #18 (Treatment Arm #4) and Cohort #19 (Treatment Arm #6). The aim was to evaluate as many patients as possible from the additional treatment groups after a treatment period of 16 weeks or more. On 30 Sep. 2020, applicant announced response assessment data from the two safety extension cohorts (31 patients) treated for 16 weeks or longer (press release: 55% Overall Response Rate on the safety extension cohorts of the ISO-CC-005 Phase I/IIa study|BioSpace). […] These patients had been treated with the selected dose regimen of 120 mg/m2 arfolitixorin and 5-fluorouracil (5-FU) with either irinotecan or oxaliplatin ([…]). Out of the 31 patients, 17 were treated with an ARFOX regimen. Clinical Study ISO-CC-005 was an exploratory, Phase I/II multiple-centre study to be carried out in Stadium IV CRC patients. The study was designed to show clinical relevance for patients by characterizing the tolerability of four arfolitixorin dose levels (30, 60, 120, and 240 mg/m2) in six different standard clinical settings in the presence of fixed doses of 5-FU alone or in combination with either oxaliplatin, irinotecan, or oxaliplatin and bevacizumab. [table] The study was divided in the Main Study and the Follow-up Study. In the Main Study, patients received study treatment with arfolitixorin during eight weeks. Patients eligible for the Follow-up study could participate until reaching progress, but no longer than 18 months. […] The goal with the Dose-finding part of the Main Study was to establish the arfolitixorin dose level assessed as having the most favourable profile, i.e. the selected phase 2 dose (SP2D). […] Response was measured in short- and long-term assessments. […]

In the case of Nc1nc(=O)c2c([nH]1)NC[C@H](CNc1ccc(C(=O)N[C@@H](CCC(=O)O)C(=O)O)cc1)N2C=O [1-LV], the pharmacokinetic comparison [1] is listed as “pharmacokinetically identical” and the metabolic conversion ([2]; In vitro) is listed as “rapidly converted to the biologically available methyl-tetrahydrofolate form”.
For Nc1nc2c(c(=O)[nH]1)N(C=O)C(CNc1ccc(C(=O)N[C@@H](CCC(=O)O)C(=O)O)cc1)CN2 (stereo partly shown) [Leucovorin, 5-formyl tetrahydrofolic acid], the pharmacokinetic comparison [1] is given as “pharmacokinetically identical”.
With Nc1nc2c(c(=O)[nH]1)N1CN(c3ccc(C(=O)N[C@@H](CCC(=O)O)C(=O)O)cc3)C[C@H]1CN2 [[6R]-5,10-MTHF, [6R]-5,10-methylenetetrahydrofolate] the “progression of tumors between 8 and 16 weeks after initiating treatment” value ([3]; ISO-CC-005, treatment period of at least 8 weeks) was “No statistically significant progression”, the “best ORR, patients diagnosed with LCRC or RCA” value ([3]; left-sided or rectal primary tumor (18 patients), 16 weeks and beyond, 120 mg/m2 arfolitixorin) was over 60% and the “best ORR, only LCRC (without the rectal cases)” value ([3]; left-sided primary tumor (13 patients), 16 weeks and beyond, 120 mg/m2 arfolitixorin) was about 70%.
For Nc1nc2c(c(=O)[nH]1)N(C=O)[C@H](CNc1ccc(C(=O)N[C@@H](CCC(=O)O)C(=O)O)cc1)CN2 [d-LV], the excretion ([2]; kidneys) is given as “slowly excreted by the kidneys”.
